In assay [1] the test system is HT-29 human colon cancer cell line. The assay is described as follows: Cytotoxicity assay. It is filed as cell-based. The conditions noted are these: HT-29 cells, three days incubation, SRB stain. For orientation: In SRB staining, fixed cells bind dye roughly in proportion to their protein.
The conditions of assay [2]: cited from earlier work.
The test system of assay [3] is P-388 lymphocytic leukemia. The note with it: administered both ip and iv; cited from earlier work.

The values below come from article PMC2993763 (Journal of natural products, 2010).

Several values for one entry are separate records, joined by “and”; a condition that tells them apart may be missing. Equal values may be shown once.

Take `COC(=O)[C@H]1[C@@H](O)[C@@]2(O)c3c(OC)cc(O[C@@H]4O[C@@H]([C@H](O)CO)CO[C@@H]4OC)cc3O[C@@]2(c2ccc(OC)cc2)[C@@H]1c1ccccc1` [Compound 1, 2‴-epi-silvestrol]: the “ED50, cytotoxicity HT-29” value in assay [1] is 2.3 µM and 2.29 µM.

Regarding `COC(=O)[C@H]1[C@@H](O)[C@@]2(O)c3c(OC)cc(O[C@@H]4O[C@@H]([C@@H](O)CO)CO[C@@H]4OC)cc3O[C@@]2(c2ccc(OC)cc2)[C@@H]1c1ccccc1` [Compound 2, 2‴,5‴-diepi-silvestrol], in assay [1], the “ED50, cytotoxicity HT-29” value was 1.1 µM and 1.07 µM.

As to `COC(=O)[C@H]1[C@@H](O)[C@@]2(O)c3c(OC)cc(O[C@@H]4O[C@@H]([C@H](O)CO)CO[C@H]4OC)cc3O[C@@]2(c2ccc(OC)cc2)[C@@H]1c1ccccc1` [Compound 7, silvestrol], the “activity in the in vivo hollow fiber assay” value in assay [2] was “active”. The “activity in the P-388 lymphocytic leukemia test system in vivo” value in assay [3] is recorded as “showed activity”. Moreover, the “ED50, cytotoxicity HT-29” value in assay [1] was determined as 0.0007 µM.

For `COC(=O)[C@H]1[C@@H](O)[C@@]2(O)c3c(OC)cc(O[C@@H]4O[C@@H]([C@@H](O)CO)CO[C@H]4OC)cc3O[C@@]2(c2ccc(OC)cc2)[C@@H]1c1ccccc1` [Compound 8, episilvestrol (5‴-epi-silvestrol)], the “ED50, cytotoxicity HT-29” value in assay [1] stood at 0.001 µM.
